Experiments:
[1] = NAC thiol/disulfide pair; Noszal et al. (2000); cited from earlier work
[2] = test system: felines; settings: felines (cat family); cited from earlier work
[3] = test system: dogs; settings: cited from earlier work
[4] = test system: humans; settings: cited from earlier work
[5] = test system: fever; test: Control of fever refractory to acetaminophen in a pediatric patient; assay type: in vivo, human; settings: standard maximum daily dose of acetaminophen
Description: A pediatric patient receives a standard maximum daily dose of acetaminophen to control a fever, but the acetaminophen is ineffective. The patient receives the same standard maximum daily dose of acetaminophen in the form of an acetaminophen-N-acetylcysteine composition.

[6] = in vivo; cited from earlier work
[7] = effects counter to those reported for NAC; Samstrand et al (1999); cited from earlier work

CC(=O)N[C@@H](CS)C(=O)O [NAC, N-acetylcysteine]
half-cell potential [1]: about +63 mV

CC(=O)Nc1ccc(O)cc1 [acetaminophen, N-acetyl-para-aminophenol]
dose at which toxicity and death were demonstrated [2]: 5 to 10 mg/kg | dose at which toxicity is documented [3]: > 40 mg/kg | dose at which toxicity is documented [4]: > 140 mg/kg | control of fever [5]: ineffective | binding to protein [6]: only slightly | volume of distribution [6]: 0.9 to 1.0 L/kg

CC(=O)N[C@@H](CSSC[C@H](NC(C)=O)C(=O)O)C(=O)O [oxidized form of NAC]
bioactive dose relative to NAC [7]: 10-100 fold less than NAC
